Results published in patent US20050197350A1, “Novel quinoline, tetrahydroquinazoline, and pyrimidine derivatives and methods of treatment related to the use thereof” (TAISHO PHARMACEUTICAL CO., LTD., priority 2003, published 2005).

Each compound was assayed on MCH receptors (assay: MCH receptor activity class (method not given)). Settings: activity class per percent of control at 10^-7 M or IC50.
`CN(C)c1nc(N[C@H]2CC[C@@H](NC(=O)c3ccccc3Sc3ccccc3C#N)CC2)nc2c1CCCC2` [compound 1011] was tested, and the class was 3 (Class 3 The value of percent of control at 10^−7 M was more than 60% or the value of IC50 was more than 200 nM.).
For `COc1cc(CC(=O)N[C@H]2CC[C@@H](Nc3nc4c(c(N(C)C)n3)CCCC4)CC2)ccc1OCc1ccccc1` [compound 1012], the class was 3 (Class 3 The value of percent of control at 10^−7 M was more than 60% or the value of IC50 was more than 200 nM.).
`C[C@@H](NC(=O)c1ccccc1C(=O)N[C@H]1CC[C@@H](Nc2nc3c(c(N(C)C)n2)CCCC3)CC1)c1cccc2ccccc12` [compound 1013] was tested, and the class was 3 (Class 3 The value of percent of control at 10^−7 M was more than 60% or the value of IC50 was more than 200 nM.).
`C[C@H](C(=O)N[C@H]1CC[C@@H](Nc2nc3c(c(N(C)C)n2)CCCC3)CC1)c1cccc(C(=O)c2ccccc2)c1` [compound 1014] was tested, and the class was 3 (Class 3 The value of percent of control at 10^−7 M was more than 60% or the value of IC50 was more than 200 nM.).
For `C[C@@H](c1ccccc1)N(C(=O)c1ccccc1C(=O)N[C@H]1CC[C@@H](Nc2nc3c(c(N(C)C)n2)CCCC3)CC1)[C@@H](C)c1ccccc1` [compound 1015], the class was 1 (Class 1: The value of percent of control at 10^−7 M was less than 40% or the value of IC50 was less than 50 nM.).
`C[C@H](C(=O)N[C@H]1CC[C@@H](Nc2nc3c(c(N(C)C)n2)CCCC3)CC1)c1ccc(-c2ccccc2)c(F)c1` [compound 1016] was tested, and the class was 2 (Class 2: The value of percent of control at 10^−7 M was from 40% to 60% or the value of IC′50 was from 50 nM to 200 nM.).
In the case of `CN(C)c1nc(N[C@H]2CC[C@@H](NC(=O)CCC(=O)c3cccs3)CC2)nc2c1CCCC2` [compound 1021], the class is reported as 3 (Class 3 The value of percent of control at 10^−7 M was more than 60% or the value of IC50 was more than 200 nM.).
In the case of `CN(C)c1nc(N[C@H]2CC[C@@H](NC(=O)CCCc3cccs3)CC2)nc2c1CCCC2` [compound 1022], the class is reported as 3 (Class 3 The value of percent of control at 10^−7 M was more than 60% or the value of IC50 was more than 200 nM.).
For `CN(C)c1nc(N[C@H]2CC[C@@H](NC(=O)COc3c(Cl)cc(Cl)cc3Cl)CC2)nc2c1CCCC2` [compound 1023], the class was 3 (Class 3 The value of percent of control at 10^−7 M was more than 60% or the value of IC50 was more than 200 nM.).
In the case of `CN(C)c1nc(N[C@H]2CC[C@@H](NC(=O)Cc3c[nH]c4ccc(OCc5ccccc5)cc34)CC2)nc2c1CCCC2` [compound 1024], the class is reported as 3 (Class 3 The value of percent of control at 10^−7 M was more than 60% or the value of IC50 was more than 200 nM.).
For `CN(C)c1nc(N[C@H]2CC[C@@H](NC(=O)c3ccccc3C(=O)c3cccc4ccccc34)CC2)nc2c1CCCC2` [compound 1025], the class was 3 (Class 3 The value of percent of control at 10^−7 M was more than 60% or the value of IC50 was more than 200 nM.).
For `COc1ccc(C(=O)N[C@H]2CC[C@@H](Nc3nc4c(c(N(C)C)n3)CCCC4)CC2)cc1OCc1ccccc1` [compound 1026], the class was 1 (Class 1: The value of percent of control at 10^−7 M was less than 40% or the value of IC50 was less than 50 nM.).
With `Cc1c(C(=O)N[C@H]2CC[C@@H](Nc3nc4c(c(N(C)C)n3)CCCC4)CC2)cc(-c2ccccc2)n1-c1ccccc1` [compound 1027] the class was 2 (Class 2: The value of percent of control at 10^−7 M was from 40% to 60% or the value of IC′50 was from 50 nM to 200 nM.).
`Cc1c(C(=O)N[C@H]2CC[C@@H](Nc3nc4c(c(N(C)C)n3)CCCC4)CC2)cc(-c2ccccc2)n1CCSCc1c(F)cccc1Cl` [compound 1028, 1-{2-[(2-chloro-6-fluorobenzyl)thio]ethyl}-N-(cis-4-{[4-(dimethy-lamino)-5,6,7,8-tetrahydroquinazolin-2-yl]amino}-cyclohexyl)-2-methyl-5-phenyl-1H-pyrrole-3-carboxamide] was tested, and the class was 2 (Class 2: The value of percent of control at 10^−7 M was from 40% to 60% or the value of IC′50 was from 50 nM to 200 nM.).
`CN(C)c1nc(N[C@H]2CC[C@@H](NC(=O)c3c4ccccc4cc4ccccc34)CC2)nc2c1CCCC2` [compound 1029] was tested, and the class was 3 (Class 3 The value of percent of control at 10^−7 M was more than 60% or the value of IC50 was more than 200 nM.).
In the case of `CN(C)c1nc(N[C@H]2CC[C@@H](NC(=O)c3ccccc3Oc3ccccc3)CC2)nc2c1CCCC2` [compound 1030], the class is reported as 1 (Class 1: The value of percent of control at 10^−7 M was less than 40% or the value of IC50 was less than 50 nM.).
With `CN(C)c1nc(N[C@H]2CC[C@@H](NC(=O)c3ccccc3-c3ccccc3)CC2)nc2c1CCCC2` [compound 1031] the class was 3 (Class 3 The value of percent of control at 10^−7 M was more than 60% or the value of IC50 was more than 200 nM.).
For `CN(C)c1nc(N[C@H]2CC[C@@H](NC(=O)CC(c3ccccc3)c3ccccc3)CC2)nc2c1CCCC2` [compound 1032], the class was 3 (Class 3 The value of percent of control at 10^−7 M was more than 60% or the value of IC50 was more than 200 nM.).
`CN(C)c1nc(N[C@H]2CC[C@@H](NC(=O)c3cc(-c4ccccc4)nc4ccccc34)CC2)nc2c1CCCC2` [compound 1033] was tested, and the class was 2 (Class 2: The value of percent of control at 10^−7 M was from 40% to 60% or the value of IC′50 was from 50 nM to 200 nM.).
With `C[C@H](NC(=O)c1ccccc1C(=O)N[C@H]1CC[C@@H](Nc2nc3c(c(N(C)C)n2)CCCC3)CC1)c1ccccc1` [compound 1034] the class was 3 (Class 3 The value of percent of control at 10^−7 M was more than 60% or the value of IC50 was more than 200 nM.).
In the case of `Cc1ccc(C(=O)c2ccccc2C(=O)N[C@H]2CC[C@@H](Nc3nc4c(c(N(C)C)n3)CCCC4)CC2)cc1` [compound 1035], the class is reported as 3 (Class 3 The value of percent of control at 10^−7 M was more than 60% or the value of IC50 was more than 200 nM.).
In the case of `CN(C)c1nc(N[C@H]2CC[C@@H](NC(=O)c3ccccc3COc3ccccc3)CC2)nc2c1CCCC2` [compound 1036], the class is reported as 3 (Class 3 The value of percent of control at 10^−7 M was more than 60% or the value of IC50 was more than 200 nM.).
For `CN(C)c1nc(N[C@H]2CC[C@@H](NC(=O)Cc3sc(-c4ccccc4)nc3-c3ccc(Cl)cc3)CC2)nc2c1CCCC2` [compound 1037], the class was 3 (Class 3 The value of percent of control at 10^−7 M was more than 60% or the value of IC50 was more than 200 nM.).
With `Cc1ccc(S(=O)(=O)n2ccc(C(=O)N[C@H]3CC[C@@H](Nc4nc5c(c(N(C)C)n4)CCCC5)CC3)c2)cc1` [compound 1038] the class was 3 (Class 3 The value of percent of control at 10^−7 M was more than 60% or the value of IC50 was more than 200 nM.).
`CN(C)c1nc(N[C@H]2CC[C@@H](NC(=O)c3ccc(-c4cccc([N+](=O)[O-])c4)o3)CC2)nc2c1CCCC2` [compound 1039] was tested, and the class was 2 (Class 2: The value of percent of control at 10^−7 M was from 40% to 60% or the value of IC′50 was from 50 nM to 200 nM.).
In the case of `CN(C)c1nc(N[C@H]2CC[C@@H](NC(=O)c3scc(S(C)(=O)=O)c3Cl)CC2)nc2c1CCCC2` [compound 1040], the class is reported as 3 (Class 3 The value of percent of control at 10^−7 M was more than 60% or the value of IC50 was more than 200 nM.).
For `CSc1sc(C(=O)N[C@H]2CC[C@@H](Nc3nc4c(c(N(C)C)n3)CCCC4)CC2)c(Cl)c1S(=O)(=O)C(C)C` [compound 1041], the class was 3 (Class 3 The value of percent of control at 10^−7 M was more than 60% or the value of IC50 was more than 200 nM.).
`CSc1sc(C(=O)N[C@H]2CC[C@@H](Nc3nc4c(c(N(C)C)n3)CCCC4)CC2)c(I)c1S(=O)(=O)C(C)C` [compound 1042] was tested, and the class was 3 (Class 3 The value of percent of control at 10^−7 M was more than 60% or the value of IC50 was more than 200 nM.).
For `CN(C)c1nc(N[C@H]2CC[C@@H](NC(=O)c3csc([N+](=O)[O-])c3)CC2)nc2c1CCCC2` [compound 1043], the class was 1 (Class 1: The value of percent of control at 10^−7 M was less than 40% or the value of IC50 was less than 50 nM.).
`CN(C)c1nc(N[C@H]2CC[C@@H](NC(=O)c3cc([N+](=O)[O-])cn3C)CC2)nc2c1CCCC2` [compound 1044] was tested, and the class was 1 (Class 1: The value of percent of control at 10^−7 M was less than 40% or the value of IC50 was less than 50 nM.).
With `CN(C)c1nc(N[C@H]2CC[C@@H](NC(=O)c3cn(S(=O)(=O)c4ccccc4)c4ccccc34)CC2)nc2c1CCCC2` [compound 1045] the class was 3 (Class 3 The value of percent of control at 10^−7 M was more than 60% or the value of IC50 was more than 200 nM.).
`CN(C)c1nc(N[C@H]2CC[C@@H](NC(=O)c3ccc([N+](=O)[O-])cc3)CC2)nc2c1CCCC2` [compound 1046] was tested, and the class was 3 (Class 3 The value of percent of control at 10^−7 M was more than 60% or the value of IC50 was more than 200 nM.).
`COc1cc([N+](=O)[O-])ccc1C(=O)N[C@H]1CC[C@@H](Nc2nc3c(c(N(C)C)n2)CCCC3)CC1` [compound 1047] was tested, and the class was 2 (Class 2: The value of percent of control at 10^−7 M was from 40% to 60% or the value of IC′50 was from 50 nM to 200 nM.).
`CN(C)c1nc(N[C@H]2CC[C@@H](NC(=O)c3ccc(C(F)(F)F)c(F)c3)CC2)nc2c1CCCC2` [compound 1048] was tested, and the class was 3 (Class 3 The value of percent of control at 10^−7 M was more than 60% or the value of IC50 was more than 200 nM.).
`CN(C)c1nc(N[C@H]2CC[C@@H](NC(=O)c3ccc([N+](=O)[O-])cc3F)CC2)nc2c1CCCC2` [compound 1049] was tested, and the class was 3 (Class 3 The value of percent of control at 10^−7 M was more than 60% or the value of IC50 was more than 200 nM.).
With `Cc1cc(C(=O)N[C@H]2CC[C@@H](Nc3nc4c(c(N(C)C)n3)CCCC4)CC2)cc(C)c1[N+](=O)[O-]` [compound 1050] the class was 3 (Class 3 The value of percent of control at 10^−7 M was more than 60% or the value of IC50 was more than 200 nM.).
With `Cc1cc(C)c(C(=O)C(=O)N[C@H]2CC[C@@H](Nc3nc4c(c(N(C)C)n3)CCCC4)CC2)c(C)c1` [compound 1051] the class was 3 (Class 3 The value of percent of control at 10^−7 M was more than 60% or the value of IC50 was more than 200 nM.).
With `CN(C)c1nc(N[C@H]2CC[C@@H](NC(=O)c3ccc4ncsc4c3)CC2)nc2c1CCCC2` [compound 1054] the class was 3 (Class 3 The value of percent of control at 10^−7 M was more than 60% or the value of IC50 was more than 200 nM.).
In the case of `CN(C)c1nc(N[C@H]2CC[C@@H](NC(=O)c3cc(Cl)ccc3O)CC2)nc2c1CCCC2` [compound 1055], the class is reported as 1 (Class 1: The value of percent of control at 10^−7 M was less than 40% or the value of IC50 was less than 50 nM.).
